What all share (format): biochemical, male Wistar rats
Assay [1] concerns the target T1, dopamine transporter/uptake site (3H-DA uptake, striatal synaptosomes) (Rattus norvegicus, UniProt P23977).
T1 construct: Corpi striati from male Wistar rats (150-200 g) are homogenised; from tissue; host or cells: rat corpus striatum, P2 synaptosomal pellet
Briefly: In vitro inhibition of 3H-dopamine (3H-DA) uptake in striatal synaptosomes. An excerpt:
(§1) The compounds of the invention have been tested for their ability to inhibit reuptake of dopamine(DA) noradrenaline(NA) and serotonine(5-HT) in synaptosomes.
(§2) Specific neurotransmitter transporters/uptake sites on nerve terminals presumably function to terminate neuronal signalling by removing the neurotransmitters dopamine, noradrenaline and serotonine, respectively, from the synaptic cleft. The activity of the transporter integral proteins can be measured in vitro by synaptosomal uptake of ^3H-dopamine, ^3H-noradrenaline and ^3H-serotonine, respectively.
In vitro Inhibition of ^3H-dopamine (^3H-DA) Uptake in Striatal Synaptosomes
(§3) Tissue preparations: Preparations are performed at 0-4° C. unless otherwise indicated. Corpi striati from male Wistar rats (150-200 g) are homogenised for 5-10 sec in 100 volumes of ice-cold 0.32M sucrose containing 1 mM pargyline using an Ultra-Turrax homogenizer. Monoamine oxidase activity will be inhibited in the presence of pargyline. The homogenate is centrifuged at 1000×g for 10 min. The resulting supernatant is then centrifuged at 27,000×g for 50 min and the supernatant is discarded. The pellet (P2) is resuspended in oxygenated (equilibrated with an atmosphere of 96% O2: 4% CO2 for at least 30 min) Krebs-Ringer incubation buffer (8000 ml per g of original tissue) at pH 7.2 containing 122 mM NaCl, 0.16 mM EDTA, 4.8 mM KCl, 12.7 mM Na2HPO4, 3.0 mM NaH2PO4, 1.2 mM MgSO4, 1 mM CaCl2, 10 mM glucose and 1 mM ascorbic acid.
(§4) Assay: Aliquots of 4.0 ml tissue suspension are added to 100 μl of test solution and 100 μl of ^3H-DA (1 nM, final concentration), mixed and incubated for 25 min at 37° C. Non-specific uptake is determined using benztropine (10 μM, final concentration). After incubation the samples are poured directly onto Whatman GF/C glass fibre filters under suction. The filters are then washed three times with 5 ml of ice-cold 0.9% (w/v) NaCl solution. The amount of radioactivity on the filters is determined by conventional liquid scintillation counting. Specific uptake is calculated as the difference between total uptake and non-specific uptake.
(§5) 25-75% inhibition of specific binding must be obtained, before calculation of an IC50.
The test value is given as IC50 (the concentration (μM) of the test substance which inhibits the specific binding of ^3H-DA by 50%).

For assay [2], the target named is noradrenaline transporter/uptake site (3H-NA uptake, hippocampal synaptosomes) (Rattus norvegicus, UniProt Q9WTR4). Briefly: In vitro inhibition of 3H-noradrenaline (3H-NA) uptake in hippocampal synaptosomes.
Text: as §1, §2
In vitro Inhibition of ^3H-noradrenaline (^3H-NA) Uptake in Hippocampal Synaptosomes
as §3, with “Tissue preparation:” for “Tissue preparations:”, “indicated. Hippocampi” for “indicated. Corpi striati”, “buffer (2000” for “buffer (8000”, “per […]” for “per g”, “MgSO4, 0.97” for “MgSO4, 1”
as §4, with “^3H-NA” for “^3H-DA”, “90” for “25”, “desipramine (1” for “benztropine (10”
as §5
The test value is given as IC50 (the concentration (μM) of the test substance which inhibits the specific binding of ^3H-NA by 50%).

Assay [3] deals with T2, serotonine transporter/uptake site (3H-5-HT uptake, cortical synaptosomes) (Rattus norvegicus, UniProt P31652).
T2 construct: Cerebral cortices from male Wistar rats (150-200 g) are homogenised; from tissue; host or cells: rat cerebral cortex, P2 synaptosomal pellet
Briefly: In vitro inhibition of 3H-5-hydroxytryptamine (3H-5-HT, serotonine) uptake in cortical synaptosomes. The conditions noted are these: for IC50: cortical synaptosomes; for greater potency as inhibitors of serotonine uptake than of either noradrenaline or dopamine uptake: selectivity, 5-HT uptake vs NA or DA uptake, in vitro.
Text: as §1, §2
In vitro Inhibition of ^3H-5-hydroxytryptamine (^3H-5-HT, Serotonine) Uptake in Cortical Synaptosomes
as §3, with “Preparation:” for “preparations:”, “Cerebral cortices” for “Corpi striati”, “(1000” for “(8000”
as §4, with “^3H-5-HT” for “^3H-DA”, “30” for “25”, “citalopram (1” for “benztropine (10”
as §5
The test value is given as IC50 (the concentration (μM) of the test substance which inhibits the specific binding of ^3H-5-HT by 50%).

Where [4] appears, read: DA-uptake IC50, Table 1, 3H-DA 1 nM, 25 min at 37° C.
The mark [5] stands for this setting: read-out: NA-uptake IC50, Table 1, 3H-NA 1 nM, 90 min at 37° C.
Setting [6] is: 5-HT-uptake IC50, Table 1, 3H-5-HT 1 nM, 30 min at 37° C.
The mark [7] stands for this setting: DA-uptake IC50, Table 2, value ± spread.
[8] abbreviates: read-out: NA-uptake IC50, Table 2, value ± spread.
Setting [9] is: 5-HT-uptake IC50, Table 2, value ± spread.

Like-named read-outs stand apart in the source and are kept apart here.

As usually defined, the IC50 is the point on the concentration scale where inhibition reaches its midpoint.

T2 sequence (P31652 whole entry): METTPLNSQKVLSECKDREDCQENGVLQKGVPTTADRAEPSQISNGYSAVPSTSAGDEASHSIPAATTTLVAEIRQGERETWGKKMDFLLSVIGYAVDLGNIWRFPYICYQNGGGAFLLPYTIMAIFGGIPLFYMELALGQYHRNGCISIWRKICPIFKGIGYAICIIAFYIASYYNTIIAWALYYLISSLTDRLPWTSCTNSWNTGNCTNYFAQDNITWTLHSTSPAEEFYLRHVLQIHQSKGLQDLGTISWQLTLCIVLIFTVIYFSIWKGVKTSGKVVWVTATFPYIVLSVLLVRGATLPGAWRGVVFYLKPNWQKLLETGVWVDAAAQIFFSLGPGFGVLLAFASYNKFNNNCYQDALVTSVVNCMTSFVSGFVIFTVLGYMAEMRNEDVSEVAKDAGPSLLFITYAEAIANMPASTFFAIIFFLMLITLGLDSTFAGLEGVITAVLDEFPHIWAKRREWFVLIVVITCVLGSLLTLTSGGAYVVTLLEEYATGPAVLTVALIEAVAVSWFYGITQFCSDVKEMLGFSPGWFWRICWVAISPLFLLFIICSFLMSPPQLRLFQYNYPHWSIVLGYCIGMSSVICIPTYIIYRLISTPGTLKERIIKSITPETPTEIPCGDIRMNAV
T1 sequence (P23977 whole entry): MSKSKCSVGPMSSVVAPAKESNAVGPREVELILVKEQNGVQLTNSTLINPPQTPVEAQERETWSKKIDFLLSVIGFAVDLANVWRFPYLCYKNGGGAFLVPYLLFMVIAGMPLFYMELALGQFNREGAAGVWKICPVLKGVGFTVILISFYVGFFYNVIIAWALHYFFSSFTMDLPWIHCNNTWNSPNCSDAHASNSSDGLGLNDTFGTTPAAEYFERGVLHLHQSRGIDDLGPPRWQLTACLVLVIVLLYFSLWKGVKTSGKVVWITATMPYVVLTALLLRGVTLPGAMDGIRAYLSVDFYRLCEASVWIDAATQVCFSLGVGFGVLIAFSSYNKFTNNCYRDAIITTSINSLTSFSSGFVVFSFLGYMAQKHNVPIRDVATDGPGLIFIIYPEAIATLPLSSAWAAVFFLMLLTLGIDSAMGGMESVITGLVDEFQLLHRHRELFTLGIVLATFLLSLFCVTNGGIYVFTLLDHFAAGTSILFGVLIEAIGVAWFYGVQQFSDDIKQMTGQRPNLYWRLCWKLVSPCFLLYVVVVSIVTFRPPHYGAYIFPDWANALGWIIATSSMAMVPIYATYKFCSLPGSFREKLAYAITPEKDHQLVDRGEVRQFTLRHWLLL

`CN1C2C=C(c3ccc(C#N)cc3)CC1CC2` (racemic) [(±)-3-(4-cyanophenyl)-8-methyl-8-azabicyclo(3.2.1]oct-2-ene]: the half-inhibitory concentration (IC50) in assay [1] (setting [4]) turned out to be 18000 nM; in assay [2] (setting [5]) it was 4900 nM; in assay [3] (setting [6]), 47 nM.
Regarding `CN1C2C=C(c3ccc([N+](=O)[O-])cc3)CC1CC2` (racemic) [(±)-3-(4-nitrophenyl)-8-methyl-8-azabicyclo[3.2.1]oct-2-ene], the values for the half-inhibitory concentration (IC50) in assay [1] (setting [4]), in assay [2] (setting [5]) and in assay [3] (setting [6]) were 1500 nM, 500 nM and 16 nM, respectively.
Consider `FC(F)(F)Oc1ccc(C2=CC3CCC(C2)N3)cc1` (racemic) [(±)-3-(4-trifluoromethoxyphenyl)-8-azabicyclo[3.2.1]oct-2-ene (racemate), (±)-3-(4-trifluoromethoxyphenyl)-8-azabicyclo[3.2.1]oct-2-ene], for which the concentration for half-maximal inhibition (IC50) in assay [1] (setting [7]) worked out at 18700 ± 3500 nM; in assay [2] (setting [8]), 15600 ± 3500 nM; in assay [3] (setting [9]), 4.8 ± 0.6 nM. For the same compound, in assay [3], the “greater potency as inhibitors of serotonine uptake than of either noradrenaline or dopamine uptake” value is reported as 3000 fold.
In the case of `CN1C2C=C(c3ccc(OC(F)(F)F)cc3)CC1CC2` (racemic) [(±)-3-(4-trifluoromethoxyphenyl)-8-methyl-8-azabicyclo[3.2.1]oct-2-ene], the IC50 in assay [1] (setting [4]) was determined as 22000 nM; in assay [1] (setting [7]), 21300 ± 1200 nM; in assay [2] (setting [5]) it was 8000 nM; in assay [2] (setting [8]), 12000 ± 2300 nM; in assay [3] (setting [6]) it was 3.6 nM; in assay [3] (setting [9]), 3.5 ± 0.3 nM. Moreover, the “greater potency as inhibitors of serotonine uptake than of either noradrenaline or dopamine uptake” value in assay [3] turned out to be 3000 fold.
Consider `FC(F)(F)Oc1ccc(C2=CC3CCC(C2)N3)cc1` (single isomer, unassigned) [3-(4-trifluoromethoxyphenyl)-8-azabicyclo[3.2.1]oct-2-ene (enantiomer A*), 3-(4-trifluoromethoxyphenyl)-8-azabicyclo[3.2.1]oct-2-ene], for which the IC50 in assay [3] (setting [9]) was determined as 22 ± 12 nM.
In assay [3] (setting [9]), `FC(F)(F)Oc1ccc(C2=CC3CCC(C2)N3)cc1` (single isomer, unassigned) [3-(4-trifluoromethoxyphenyl)-8-azabicyclo[3.2.1]oct-2-ene (enantiomer B*), 3-(4-trifluoromethoxyphenyl)-8-azabicyclo[3.2.1]oct-2-ene] gave an IC50 of 12 ± 6 nM.
